This note sets out measurements from patent US11464749B2, “Bismuth-thiol compositions and methods of use” (Microbion Corporation, priority 2018, dated 2022).

≈ marks a conversion by molar mass, not a printed value. Like-named read-outs stand apart in the source and are kept apart here. Where only a bound is given, the exact number is not on record here.

Assay [1] relates to B. cepacia. In words: Broth microdilution MIC (Example 10). To be noted: initial MIC testing. In general terms: Broth dilution looks for growth in wells or tubes with falling amounts of substance.
Assay [2] relates to B. cepacia. In words: FIC checkerboard assay. Format: cell-based.
The test system of assay [3] is B. cenocepacia. Kind of assay: FIC checkerboard assay. The note with it: during FIC testing. Format: cell-based.
Assay [4] deals with B. cenocepacia. Kind of assay: Broth microdilution MIC (Example 10). The note with it: initial MIC testing; B. cenocepacia isolate 0548 (CIP-R).
Another assay relates to Acinetobacter baumannii. In words: Broth microdilution MIC (Example 12).
In another assay the test system is Pseudomonas aeruginosa. In words: Broth microdilution MIC (Example 12).
Another assay has as its system Escherichia coli. In words: Broth microdilution MIC (Example 12).
A further assay concerns Klebsiella pneumoniae. In words: Broth microdilution MIC (Example 12).
Another assay deals with A. fumigatus. Kind of assay: Broth microdilution antifungal susceptibility (Example 13). Format: cell-based.
A further assay concerns A. flavus. The description is as above. The format is cell-based.
A further assay concerns A. niger. The description is as above. The format is cell-based. To be noted: A. niger ATCC 29508.
The subject of a further assay is A. terreus. The description is as above. To be noted: A. terreus MMX 8229. Format: cell-based.
The next assay relates to P. aeruginosa. In words: FIC checkerboard assay. The format is cell-based. The note with it: for MICB / FICB: by checkerboard; for FICB: Colistin in combination with BisEDT; for MIC: Pseudomonas aeruginosa, Aztreonam alone (checkerboard with BisEDT), read-out: Drug B MIC.
A further assay concerns Burkholderia spp. In words: organism not typed. The format is cell-based.
Where [5] appears, read: during FIC testing, B. cepacia isolate 0546.

On to `NC[C@H]1O[C@H](O[C@H]2[C@H](O)[C@@H](O[C@H]3O[C@H](CO)[C@@H](O)[C@H](N)[C@H]3O)[C@H](N)C[C@@H]2N)[C@H](N)C[C@@H]1O` [TOB], for which the MIC turned out to be 64 µg/mL (≈ 137 µM) in the assay on B. cepacia [1] (B. cepacia isolate 0546); 64 µg/mL (≈ 137 µM) against B. cepacia [1] (B. cepacia isolate 1793); 64 µg/mL (≈ 137 µM) against B. cepacia [1] (B. cepacia isolate 1794); 32 µg/mL in the assay on B. cepacia [2] (setting [5]); 32 µg/mL with B. cenocepacia [3] (B. cenocepacia isolate 0548 (CIP-R)); 64 µg/mL (≈ 137 µM) in the assay on B. cenocepacia [4].

In the case of `NCC[C@H](O)C(=O)N[C@@H]1C[C@H](N)[C@@H](O[C@H]2O[C@H](CN)[C@@H](O)[C@H](O)[C@H]2O)[C@H](O)[C@H]1O[C@H]1O[C@H](CO)[C@@H](O)[C@H](N)[C@H]1O` [AMK], the MIC is 64 µg/mL (≈ 109 µM) against B. cepacia [1] (B. cepacia isolate 0546); 64 µg/mL (≈ 109 µM) against B. cepacia [1] (B. cepacia isolate 1793); over 64 µg/mL against Acinetobacter baumannii (A. baumannii CDC 273, ESBL/OXA); 16 µg/mL (≈ 27.3 µM) in the assay with Acinetobacter baumannii (A. baumannii CDC 274, ESBL/OXA); over 64 µg/mL against Acinetobacter baumannii (A. baumannii CDC 275, ESBL/OXA); 16 µg/mL (≈ 27.3 µM) against Acinetobacter baumannii (A. baumannii CDC 277, ESBL/OXA). Besides, the MIC was 32 µg/mL (≈ 54.6 µM) with Acinetobacter baumannii (A. baumannii CDC 284, ESBL/OXA); over 64 µg/mL against Acinetobacter baumannii (A. baumannii CDC 307, OXA); over 64 µg/mL in the assay with Acinetobacter baumannii (A. baumannii CDC 308, ESBL/OXA); over 64 µg/mL in the assay with Acinetobacter baumannii (A. baumannii CDC 311, OXA); 1 µg/mL (≈ 1.71 µM) with Acinetobacter baumannii (A. baumannii CDC 312, OXA); 4 µg/mL (≈ 6.83 µM) in the assay with Acinetobacter baumannii (A. baumannii CDC 313, ESBL/OXA). For the same molecule, the MIC against Acinetobacter baumannii (A. baumannii NCTC 13304, OXA) was 0.5 µg/mL (≈ 0.854 µM); in the assay on Pseudomonas aeruginosa (P. aeruginosa CDC 230, VIM/OXA), over 64 µg/mL; in the assay with Pseudomonas aeruginosa (P. aeruginosa CDC 231, KPC/OXA) it was 8 µg/mL (≈ 13.7 µM); in the assay with Pseudomonas aeruginosa (P. aeruginosa CDC 241, IMP/OXA), 32 µg/mL (≈ 54.6 µM); in the assay with Pseudomonas aeruginosa (P. aeruginosa CDC 246, NDM/OXA) it was over 64 µg/mL; in the assay on Pseudomonas aeruginosa (P. aeruginosa CDC 250, NDM/OXA), over 64 µg/mL. In addition, the MIC against Pseudomonas aeruginosa (P. aeruginosa CDC 356, KPC) was 2 µg/mL (≈ 3.42 µM); with Pseudomonas aeruginosa (P. aeruginosa CDC 439, IMP), over 64 µg/mL; in the assay with Pseudomonas aeruginosa (P. aeruginosa CDC 444, VIM), over 64 µg/mL; against Pseudomonas aeruginosa (P. aeruginosa CDC 457, VIM), 2 µg/mL (≈ 3.42 µM); against Pseudomonas aeruginosa (P. aeruginosa CDC 516, KPC/AmpC), 2 µg/mL (≈ 3.42 µM); in the assay on Pseudomonas aeruginosa (P. aeruginosa CDC 518, KPC/AmpC), 16 µg/mL (≈ 27.3 µM). Further, the MIC was 1 µg/mL (≈ 1.71 µM) against Escherichia coli (E. coli ATCC 35218, ESBL); 1 µg/mL (≈ 1.71 µM) with Escherichia coli (E. coli ATCC 35218, QC organism (Table 102)); 64 µg/mL (≈ 109 µM) with Escherichia coli (E. coli ATCC BAA-2471, NDM); 1 µg/mL (≈ 1.71 µM) against Escherichia coli (E. coli CDC 114, ESBL/KPC); over 64 µg/mL with Escherichia coli (E. coli CDC 118, ESBL/NDM); over 64 µg/mL against Escherichia coli (E. coli CDC 435, NDM). The MIC in the assay on Escherichia coli (E. coli CDC 451, KPC) was 4 µg/mL (≈ 6.83 µM); in the assay on Escherichia coli (E. coli CDC 503, ESBL/NDM), over 64 µg/mL; in the assay on Escherichia coli (E. coli MMX 5745, KPC), 0.5 µg/mL (≈ 0.854 µM); with Escherichia coli (E. coli MMX 5755, ESBL), 16 µg/mL (≈ 27.3 µM); in the assay with Escherichia coli (E. coli MMX 5756, ESBL), 64 µg/mL (≈ 109 µM); against Escherichia coli (E. coli MMX 5758, ESBL) it was 1 µg/mL (≈ 1.71 µM). Besides, the MIC was 64 µg/mL in the assay on B. cepacia [2] (setting [5]); 32 µg/mL in the assay on B. cepacia [2] (during FIC testing, B. cepacia isolate 1793); 16 µg/mL (≈ 27.3 µM) in the assay on Klebsiella pneumoniae (K. pneumoniae ATCC BAA-1705, ESBL/KPC); 16 µg/mL (≈ 27.3 µM) with Klebsiella pneumoniae (K. pneumoniae ATCC BAA-1705, QC organism (Table 102)); 16 µg/mL (≈ 27.3 µM) against Klebsiella pneumoniae (K. pneumoniae CDC 112, KPC); 16 µg/mL (≈ 27.3 µM) with Klebsiella pneumoniae (K. pneumoniae CDC 113, ESBL/KPC). In addition, the MIC with Klebsiella pneumoniae (K. pneumoniae CDC 115, ESBL/KPC) was 0.5 µg/mL (≈ 0.854 µM); with Klebsiella pneumoniae (K. pneumoniae CDC 120, ESBL/KPC) it was 16 µg/mL (≈ 27.3 µM); in the assay on Klebsiella pneumoniae (K. pneumoniae CDC 126, ESBL/KPC), 2 µg/mL (≈ 3.42 µM); against Klebsiella pneumoniae (K. pneumoniae CDC 129, ESBL/KPC) it was 32 µg/mL (≈ 54.6 µM); in the assay on Klebsiella pneumoniae (K. pneumoniae CDC 135, ESBL/VIM), 16 µg/mL (≈ 27.3 µM); in the assay with Klebsiella pneumoniae (K. pneumoniae CDC 138, ESBL/NDM), over 64 µg/mL. Besides, the MIC came out at 2 µg/mL (≈ 3.42 µM) in the assay with Klebsiella pneumoniae (K. pneumoniae CDC 158, ESBL/NDM/OXA) and 0.5 µg/mL (≈ 0.854 µM) against Klebsiella pneumoniae (K. pneumoniae MMX 9029, ESBL).

On to `C[C@H]1[C@H](NC(=O)/C(=N\OC(C)(C)C(=O)O)c2csc(N)n2)C(=O)N1S(=O)(=O)O` [AZT], for which the MIC in the assay with B. cepacia [2] (setting [5]) was 32 µg/mL; with B. cenocepacia [3] (B. cenocepacia isolate 0813 (CIP-I)), 32 µg/mL; against B. cenocepacia [4], 64 µg/mL (≈ 147 µM).

Turning to `OC(Cn1cncn1)(Cn1cncn1)c1ccc(F)cc1F` [FLU], the MIC2 in the assay on A. fumigatus (A. fumigatus ATCC 204305), in the assay on A. fumigatus (A. fumigatus ATCC MYA-3626), against A. fumigatus (A. fumigatus MMX 5934), against A. fumigatus (A. fumigatus MMX 5938), with A. fumigatus (A. fumigatus MMX 5939) and against A. flavus (A. flavus ATCC 22546) was over 64 µg/mL each time. Also, the MIC2 in the assay with A. flavus (A. flavus ATCC 204304), with A. flavus (A. flavus MMX 7935), in the assay on A. niger and with A. terreus was over 64 µg/mL in each case.

For Colistin, the MICB was determined as 0.5 µg/mL with P. aeruginosa (P. aeruginosa 6322, Colistin MIC in combination with BisEDT); 1 µg/mL in the assay with P. aeruginosa (P. aeruginosa 6977, Colistin MIC in combination with BisEDT); 0.5 µg/mL in the assay with P. aeruginosa (P. aeruginosa 7745, Colistin MIC in combination with BisEDT). Moreover, the FICB with P. aeruginosa (P. aeruginosa 6322) came out at 1; in the assay with P. aeruginosa (P. aeruginosa 6977), 1; in the assay on P. aeruginosa (P. aeruginosa 7745) it was 1; with Burkholderia spp. (B. multivorans 1795, FIC of Colistin in combination with BisEDT, per checkerboard row) it was 1.

As for `C[C@H]1[C@H](NC(=O)/C(=N\OC(C)(C)C(=O)O)c2csc(N)n2)C(=O)N1S(=O)(=O)O` [Aztreonam], the MICB in the assay with P. aeruginosa (P. aeruginosa 7745, Aztreonam MIC in combination with BisEDT) was 16 µg/mL; in the assay on P. aeruginosa (P. aeruginosa 9108, Aztreonam MIC in combination with BisEDT) it was 16 µg/mL. The minimum inhibitory concentration (MIC) in the assay on P. aeruginosa (P. aeruginosa 6322) is 32 µg/mL; in the assay on P. aeruginosa (P. aeruginosa 6977) it was 64 µg/mL; with P. aeruginosa (P. aeruginosa 7745) it was 16 µg/mL; in the assay with P. aeruginosa (P. aeruginosa 8798) it was over 256 µg/mL; with P. aeruginosa (P. aeruginosa 9108) it was 16 µg/mL; in the assay on B. cepacia [2] (Burkholderia cepacia, B. cepacia 546, Aztreonam alone (checkerboard with BisEDT), read-out: Drug B MIC) it was 32 µg/mL. Besides, the MIC with B. cepacia [2] (Burkholderia cepacia, B. cepacia 1793, Aztreonam alone (panel with BisEDT), read-out: Drug B MIC) was 128 µg/mL; with Burkholderia spp. (read-out: Drug B MIC), 16 µg/mL (≈ 36.7 µM).

In general, MIC refers to the least concentration at which growth counts as inhibited.
